Assay results: publication PMC6478789, “A chemical toolbox for the study of bromodomains and epigenetic signaling” (Nature Communications, 2019)

How the values were obtained:
Experiment in all cases: Methyl transferase scintillation proximity assay
Assay type in all cases: biochemical
Details in all cases: average of two measurements; for inhibition at 10 µM: read-out: MTases Inhibition (%)
PRC2-EZH1 = target: T1, PRC2-EZH1 (Homo sapiens, UniProt Q92800)
T1 construct: purchased DiscoverX BROMOscan (bromodomains); SGC in-house methyltransferase panel
Method: (§1) Assays measuring lysine and arginine methyl transferase activity have been described in Scheer et al.. A radioactivity-based scintillation proximity assay was used to monitor incorporation of a tritium-labeled methyl group into the biotinylated substrate of the methyl transferase. A 10-μl reaction containing ^3H-SAM and substrate at concentrations close to the apparent Km values for each enzyme was prepared. The reactions were quenched with 10 μl of 7.5 M guanidine hydrochloride; 180 μl of 20 mM Tris buffer (pH 8.0) were added; and the mixture was transferred to a 96-well FlashPlate and incubated for 1 h. The counts per minute (CPM) was measured on a TopCount plate reader. The CPM in the absence of compound or enzyme was defined as 100% activity and background (0%), respectively, for each dataset.

SETD8 = target: T2, SETD8 (Homo sapiens, UniProt Q9NQR1)
T2 construct: purchased DiscoverX BROMOscan (bromodomains); SGC in-house methyltransferase panel
T2 sequence (Q9NQR1 1-393): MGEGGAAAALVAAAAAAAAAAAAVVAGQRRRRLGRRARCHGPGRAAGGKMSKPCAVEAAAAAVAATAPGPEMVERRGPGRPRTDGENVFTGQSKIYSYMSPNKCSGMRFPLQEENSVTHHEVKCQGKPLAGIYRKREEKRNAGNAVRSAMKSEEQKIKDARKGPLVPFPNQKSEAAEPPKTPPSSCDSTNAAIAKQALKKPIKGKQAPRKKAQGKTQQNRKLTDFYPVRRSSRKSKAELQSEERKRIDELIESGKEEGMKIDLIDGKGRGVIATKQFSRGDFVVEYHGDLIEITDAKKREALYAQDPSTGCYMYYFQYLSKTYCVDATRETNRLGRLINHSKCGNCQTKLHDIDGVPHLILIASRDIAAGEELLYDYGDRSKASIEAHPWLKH
Method: as §1

PRMT5 = target: T3, PRMT5 (Homo sapiens, UniProt O14744)
T3 construct: purchased DiscoverX BROMOscan (bromodomains); SGC in-house methyltransferase panel
Method: as §1

SUV39H1 = target: T4, SUV39H1 (Homo sapiens, UniProt O43463)
T4 construct: purchased DiscoverX BROMOscan (bromodomains); SGC in-house methyltransferase panel
T4 sequence (O43463 1-412): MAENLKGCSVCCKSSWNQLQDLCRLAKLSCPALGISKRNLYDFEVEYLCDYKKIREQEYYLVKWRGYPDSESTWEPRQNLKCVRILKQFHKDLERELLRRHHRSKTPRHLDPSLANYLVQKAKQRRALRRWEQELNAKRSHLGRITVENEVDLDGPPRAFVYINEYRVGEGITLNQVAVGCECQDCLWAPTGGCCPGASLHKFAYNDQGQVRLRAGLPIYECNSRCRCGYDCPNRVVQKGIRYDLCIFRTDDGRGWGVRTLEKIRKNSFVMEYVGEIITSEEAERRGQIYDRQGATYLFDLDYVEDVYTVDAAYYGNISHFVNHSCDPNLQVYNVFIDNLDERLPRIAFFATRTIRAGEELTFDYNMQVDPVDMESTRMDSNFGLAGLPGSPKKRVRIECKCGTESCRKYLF
Method: as §1

DNMT1 = target: T5, DNMT1 (Homo sapiens, UniProt P26358)
T5 construct: purchased DiscoverX BROMOscan (bromodomains); SGC in-house methyltransferase panel
Method: as §1

BCDIN3D = target: T6, BCDIN3D (Homo sapiens, UniProt Q7Z5W3)
T6 construct: purchased DiscoverX BROMOscan (bromodomains); SGC in-house methyltransferase panel
T6 sequence (Q7Z5W3 1-292): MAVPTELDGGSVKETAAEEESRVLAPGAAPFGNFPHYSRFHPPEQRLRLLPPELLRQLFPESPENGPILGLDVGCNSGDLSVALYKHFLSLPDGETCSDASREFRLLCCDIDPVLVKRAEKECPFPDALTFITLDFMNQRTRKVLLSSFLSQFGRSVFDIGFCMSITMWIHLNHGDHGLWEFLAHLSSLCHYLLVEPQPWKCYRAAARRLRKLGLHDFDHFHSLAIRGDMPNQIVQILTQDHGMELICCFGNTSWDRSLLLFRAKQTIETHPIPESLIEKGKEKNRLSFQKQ
Method: as §1

SMYD3 = target: T7, SMYD3 (Homo sapiens, UniProt Q9H7B4)
T7 construct: purchased DiscoverX BROMOscan (bromodomains); SGC in-house methyltransferase panel
T7 sequence (Q9H7B4 1-428): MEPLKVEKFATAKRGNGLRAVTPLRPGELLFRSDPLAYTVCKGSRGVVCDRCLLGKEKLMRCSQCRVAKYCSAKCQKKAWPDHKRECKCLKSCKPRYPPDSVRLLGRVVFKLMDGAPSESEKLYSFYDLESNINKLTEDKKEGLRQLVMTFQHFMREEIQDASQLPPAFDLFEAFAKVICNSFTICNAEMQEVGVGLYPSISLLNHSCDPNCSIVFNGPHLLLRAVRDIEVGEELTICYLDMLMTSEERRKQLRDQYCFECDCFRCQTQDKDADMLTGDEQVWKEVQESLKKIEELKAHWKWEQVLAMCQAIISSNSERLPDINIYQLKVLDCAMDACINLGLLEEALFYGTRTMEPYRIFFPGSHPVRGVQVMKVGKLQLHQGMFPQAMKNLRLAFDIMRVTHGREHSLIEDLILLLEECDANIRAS
Method: as §1

PRMT3 = target: T8, PRMT3 (Homo sapiens, UniProt O60678)
T8 construct: purchased DiscoverX BROMOscan (bromodomains); SGC in-house methyltransferase panel
Method: as §1

PRMT8 = target: T9, PRMT8 (Homo sapiens, UniProt Q9NR22)
T9 construct: purchased DiscoverX BROMOscan (bromodomains); SGC in-house methyltransferase panel
Method: as §1

PRMT7 = target: T10, PRMT7 (Homo sapiens, UniProt Q9NVM4)
T10 construct: purchased DiscoverX BROMOscan (bromodomains); SGC in-house methyltransferase panel
T10 sequence (Q9NVM4 1-692): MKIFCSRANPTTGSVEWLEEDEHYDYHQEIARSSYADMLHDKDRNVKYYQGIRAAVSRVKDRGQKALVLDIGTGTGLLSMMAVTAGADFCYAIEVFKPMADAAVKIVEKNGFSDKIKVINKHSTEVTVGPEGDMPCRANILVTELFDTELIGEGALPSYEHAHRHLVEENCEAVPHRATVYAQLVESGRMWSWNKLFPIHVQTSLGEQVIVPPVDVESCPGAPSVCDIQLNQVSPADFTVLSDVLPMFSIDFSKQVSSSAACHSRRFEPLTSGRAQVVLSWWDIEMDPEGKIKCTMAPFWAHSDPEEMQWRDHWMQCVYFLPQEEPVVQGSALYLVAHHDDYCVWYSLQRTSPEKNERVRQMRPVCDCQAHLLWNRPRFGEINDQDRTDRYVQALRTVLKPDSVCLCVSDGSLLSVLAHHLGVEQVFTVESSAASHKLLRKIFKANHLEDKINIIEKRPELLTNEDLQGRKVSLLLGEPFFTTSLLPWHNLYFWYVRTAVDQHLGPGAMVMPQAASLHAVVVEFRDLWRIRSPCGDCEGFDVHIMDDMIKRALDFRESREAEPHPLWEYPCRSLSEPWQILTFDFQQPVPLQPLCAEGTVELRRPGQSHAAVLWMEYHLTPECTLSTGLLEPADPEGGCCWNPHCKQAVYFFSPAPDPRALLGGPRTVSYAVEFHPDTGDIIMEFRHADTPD
Method: as §1

T9 sequence (Q9NR22 whole entry): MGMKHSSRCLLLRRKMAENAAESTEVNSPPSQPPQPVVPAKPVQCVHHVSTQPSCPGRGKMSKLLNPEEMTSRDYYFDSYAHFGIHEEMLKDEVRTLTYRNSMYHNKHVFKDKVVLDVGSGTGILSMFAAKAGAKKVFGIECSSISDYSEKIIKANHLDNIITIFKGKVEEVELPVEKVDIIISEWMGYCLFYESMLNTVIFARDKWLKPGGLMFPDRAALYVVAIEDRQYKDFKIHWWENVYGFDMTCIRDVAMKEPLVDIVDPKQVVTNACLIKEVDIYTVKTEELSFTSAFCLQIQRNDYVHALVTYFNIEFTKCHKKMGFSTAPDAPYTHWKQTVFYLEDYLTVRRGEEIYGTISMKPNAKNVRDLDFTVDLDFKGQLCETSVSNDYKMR
T8 sequence (O60678 whole entry): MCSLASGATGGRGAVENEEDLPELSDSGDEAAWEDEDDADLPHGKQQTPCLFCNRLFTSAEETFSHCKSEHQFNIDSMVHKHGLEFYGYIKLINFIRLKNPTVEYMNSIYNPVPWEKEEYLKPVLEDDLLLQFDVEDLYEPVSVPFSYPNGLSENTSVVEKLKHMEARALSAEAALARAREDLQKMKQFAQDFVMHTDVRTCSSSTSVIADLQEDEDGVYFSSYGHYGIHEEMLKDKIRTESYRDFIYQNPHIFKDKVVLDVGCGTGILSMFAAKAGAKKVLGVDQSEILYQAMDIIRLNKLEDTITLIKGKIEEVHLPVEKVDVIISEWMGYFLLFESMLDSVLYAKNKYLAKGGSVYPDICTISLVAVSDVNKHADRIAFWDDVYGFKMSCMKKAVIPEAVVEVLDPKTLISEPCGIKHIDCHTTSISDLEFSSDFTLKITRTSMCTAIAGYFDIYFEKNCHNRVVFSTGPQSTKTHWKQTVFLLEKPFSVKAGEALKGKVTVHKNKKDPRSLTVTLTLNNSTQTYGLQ
T1 sequence (Q92800 whole entry): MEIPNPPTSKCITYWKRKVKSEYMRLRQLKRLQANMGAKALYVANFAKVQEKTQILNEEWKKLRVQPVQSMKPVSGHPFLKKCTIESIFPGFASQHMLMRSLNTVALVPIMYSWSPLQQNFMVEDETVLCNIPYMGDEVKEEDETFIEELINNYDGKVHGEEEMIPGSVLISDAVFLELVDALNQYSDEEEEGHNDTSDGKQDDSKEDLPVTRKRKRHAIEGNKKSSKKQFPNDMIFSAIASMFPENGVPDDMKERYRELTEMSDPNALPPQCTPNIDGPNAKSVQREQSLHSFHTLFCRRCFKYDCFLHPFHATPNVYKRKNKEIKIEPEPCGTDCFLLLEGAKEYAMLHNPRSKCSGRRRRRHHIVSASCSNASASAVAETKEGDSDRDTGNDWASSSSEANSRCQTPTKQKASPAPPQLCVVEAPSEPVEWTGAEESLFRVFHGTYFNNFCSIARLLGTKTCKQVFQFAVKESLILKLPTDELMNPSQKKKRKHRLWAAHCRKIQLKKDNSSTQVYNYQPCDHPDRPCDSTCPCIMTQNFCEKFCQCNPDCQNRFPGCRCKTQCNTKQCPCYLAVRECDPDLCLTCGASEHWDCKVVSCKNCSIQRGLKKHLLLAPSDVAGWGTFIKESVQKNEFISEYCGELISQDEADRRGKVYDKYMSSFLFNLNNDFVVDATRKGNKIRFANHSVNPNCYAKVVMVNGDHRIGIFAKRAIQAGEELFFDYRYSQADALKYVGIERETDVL
T1 sequence (O75530 whole entry partner): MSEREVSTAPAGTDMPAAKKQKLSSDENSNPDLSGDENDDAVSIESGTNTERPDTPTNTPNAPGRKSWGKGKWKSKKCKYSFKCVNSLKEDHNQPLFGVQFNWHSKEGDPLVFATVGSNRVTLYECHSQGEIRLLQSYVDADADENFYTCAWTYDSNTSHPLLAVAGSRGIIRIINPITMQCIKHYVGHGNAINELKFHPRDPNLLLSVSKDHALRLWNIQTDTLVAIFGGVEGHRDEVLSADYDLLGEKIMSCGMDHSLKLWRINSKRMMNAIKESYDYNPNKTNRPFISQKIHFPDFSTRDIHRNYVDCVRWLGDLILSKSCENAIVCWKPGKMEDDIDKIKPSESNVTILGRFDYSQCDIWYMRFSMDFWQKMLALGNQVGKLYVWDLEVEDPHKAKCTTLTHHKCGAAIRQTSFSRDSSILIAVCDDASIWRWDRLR
T1 sequence (Q15022 whole entry partner): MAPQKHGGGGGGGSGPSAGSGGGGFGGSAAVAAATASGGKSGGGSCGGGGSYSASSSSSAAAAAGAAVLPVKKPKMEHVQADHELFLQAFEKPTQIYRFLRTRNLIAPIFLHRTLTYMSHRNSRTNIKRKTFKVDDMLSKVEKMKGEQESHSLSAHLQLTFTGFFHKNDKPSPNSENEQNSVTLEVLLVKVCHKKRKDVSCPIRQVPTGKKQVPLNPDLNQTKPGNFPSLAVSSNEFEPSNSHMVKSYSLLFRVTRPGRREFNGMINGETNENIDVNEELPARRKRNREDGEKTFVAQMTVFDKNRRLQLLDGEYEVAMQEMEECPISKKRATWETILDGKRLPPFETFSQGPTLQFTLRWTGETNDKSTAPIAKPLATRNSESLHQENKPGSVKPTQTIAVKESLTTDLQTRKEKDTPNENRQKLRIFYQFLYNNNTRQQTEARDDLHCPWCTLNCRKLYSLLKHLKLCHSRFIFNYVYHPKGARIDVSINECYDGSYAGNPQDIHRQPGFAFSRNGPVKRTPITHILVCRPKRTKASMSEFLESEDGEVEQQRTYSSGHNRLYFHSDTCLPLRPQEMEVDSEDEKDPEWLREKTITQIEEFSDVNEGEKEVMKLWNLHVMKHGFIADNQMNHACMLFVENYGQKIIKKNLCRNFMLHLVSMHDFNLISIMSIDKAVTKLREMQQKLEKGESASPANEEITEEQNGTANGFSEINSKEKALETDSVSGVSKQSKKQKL
T5 sequence (P26358 whole entry): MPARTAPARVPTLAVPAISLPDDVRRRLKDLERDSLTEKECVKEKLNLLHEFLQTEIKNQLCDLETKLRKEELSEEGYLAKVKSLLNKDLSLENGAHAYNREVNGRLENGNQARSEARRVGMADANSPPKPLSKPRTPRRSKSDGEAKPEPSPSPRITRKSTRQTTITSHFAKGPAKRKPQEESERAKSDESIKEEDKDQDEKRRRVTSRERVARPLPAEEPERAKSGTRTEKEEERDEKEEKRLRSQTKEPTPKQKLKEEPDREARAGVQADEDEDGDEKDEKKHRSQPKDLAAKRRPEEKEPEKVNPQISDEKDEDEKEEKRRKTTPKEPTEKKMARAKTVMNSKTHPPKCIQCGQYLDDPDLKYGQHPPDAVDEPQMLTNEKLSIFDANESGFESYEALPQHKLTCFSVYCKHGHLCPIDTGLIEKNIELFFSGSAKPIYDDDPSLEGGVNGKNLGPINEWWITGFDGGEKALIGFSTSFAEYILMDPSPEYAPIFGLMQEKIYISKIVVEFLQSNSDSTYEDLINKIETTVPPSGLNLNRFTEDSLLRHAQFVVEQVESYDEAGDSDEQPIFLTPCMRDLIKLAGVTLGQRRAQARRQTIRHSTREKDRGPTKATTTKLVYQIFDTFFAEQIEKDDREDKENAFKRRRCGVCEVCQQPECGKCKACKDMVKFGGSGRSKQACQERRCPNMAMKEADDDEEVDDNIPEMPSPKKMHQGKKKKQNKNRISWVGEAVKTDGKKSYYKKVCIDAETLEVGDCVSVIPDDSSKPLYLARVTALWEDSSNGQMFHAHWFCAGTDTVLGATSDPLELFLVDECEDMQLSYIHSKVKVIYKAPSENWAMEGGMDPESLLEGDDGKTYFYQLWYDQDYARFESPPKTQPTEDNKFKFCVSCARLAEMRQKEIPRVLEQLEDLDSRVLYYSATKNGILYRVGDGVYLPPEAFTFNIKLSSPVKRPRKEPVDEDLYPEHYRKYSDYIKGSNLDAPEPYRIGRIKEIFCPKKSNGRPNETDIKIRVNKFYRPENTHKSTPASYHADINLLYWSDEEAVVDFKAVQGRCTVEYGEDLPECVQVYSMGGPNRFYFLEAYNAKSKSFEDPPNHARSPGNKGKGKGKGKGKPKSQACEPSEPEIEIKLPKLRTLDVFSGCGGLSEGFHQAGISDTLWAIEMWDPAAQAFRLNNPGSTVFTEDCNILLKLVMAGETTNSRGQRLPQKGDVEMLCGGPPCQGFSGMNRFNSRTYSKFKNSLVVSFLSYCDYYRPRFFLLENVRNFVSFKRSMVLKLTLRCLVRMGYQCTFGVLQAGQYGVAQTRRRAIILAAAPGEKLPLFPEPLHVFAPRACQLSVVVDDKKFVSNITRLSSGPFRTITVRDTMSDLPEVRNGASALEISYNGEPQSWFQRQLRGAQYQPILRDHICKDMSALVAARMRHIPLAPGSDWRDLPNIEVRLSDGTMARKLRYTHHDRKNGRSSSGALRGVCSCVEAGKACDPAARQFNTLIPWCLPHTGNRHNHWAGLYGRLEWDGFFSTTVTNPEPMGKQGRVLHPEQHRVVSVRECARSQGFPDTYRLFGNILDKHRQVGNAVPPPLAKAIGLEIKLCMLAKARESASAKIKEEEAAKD

inhibition at 10 µM (PRC2-EZH1)	inhibition at 10 µM (SETD8)	inhibition at 10 µM (PRMT5)	inhibition at 10 µM (SUV39H1)	inhibition at 10 µM (DNMT1)	inhibition at 10 µM (BCDIN3D)	inhibition at 10 µM (SMYD3)	inhibition at 10 µM (PRMT3)	inhibition at 10 µM (PRMT8)	inhibition at 10 µM (PRMT7)	MTases Inhibition (%) (PRC2-EZH1; 10µM)	MTases Inhibition (%) (SETD8; 10µM)	MTases Inhibition (%) (PRMT5; 10µM)	MTases Inhibition (%) (SUV39H1; 10µM)	MTases Inhibition (%) (DNMT1; 10µM)	MTases Inhibition (%) (BCDIN3D; 10µM)	MTases Inhibition (%) (SMYD3; 10µM)	MTases Inhibition (%) (PRMT3; 10µM)	MTases Inhibition (%) (PRMT8; 10µM)	MTases Inhibition (%) (PRMT7; 10µM)	SMILES
3%	-3%	4%	12%	9%	16%	7%	5%	3%	13%											Cc1c(NC(=O)c2cc(C(N)=O)nc3cc(F)ccc23)c(C(F)(F)F)nn1Cc1ccc(C(C)(C)C)cc1 [BAY-588]
19%	2%	4%	5%	4%	28%	6%	3%	4%	3%											COc1cc(Cl)c(C(=O)N[C@@H](CN[C@H]2CC[C@@H](N)CC2)Cc2ccc(C#N)cc2)cc1-c1ccc(CN[C@H](C)c2ccc(C)cc2)o1 [BAY-850]
-4%	0%	-1%	16%	4%	17%	3%	1%	9%	12%											Cc1c(NC(=O)c2cc(C(N)=O)nc3cc(F)ccc23)c(C(F)(F)F)nn1Cc1ccc(C#N)cc1 [BAY-876]
-1%	10%	8%	-3%	3%	14%	1%	2%	15%	15%											CN1C[C@H](Nc2cnn(C)c(=O)c2Br)C[C@H](c2ccccc2)C1 [GSK4027]
										1%	-6%	3%	-3%	-8%	5%	9%	1%	3%	11%	COc1ccccc1C(=O)Nc1cc2c(cc1N1CCNC[C@H]1C)n(C)c(=O)n2C [GSK6853]
1%	-7%	-2%	-2%	-3%	7%	8%	3%	5%	11%											CO[C@H]1CNC[C@@H](OCC2CCC(F)(F)CC2)[C@@H]1Nc1ncc(-c2cncc(C)c2)c2cc(C)c(=O)[nH]c12 [GSK8814]
5%	-8%	-3%	-2%	3%	9%	10%	0%	5%	8%											Cc1nnc2c3ccccc3c(N[C@@H](C)[C@H](c3ccccc3)N(C)C)nn12 [L-Moses]
6%	-6%	-12%	-1%	3%	4%	7%	5%	3%	9%											CN(C)CCCOc1ccc(-c2cc(NCCCn3cccn3)nc(S(C)(=O)=O)n2)cc1 [TP-238]
